Experimental data published in paper PMC9851200, “Multiparameter phenotypic screening for endogenous TFEB and TFE3 translocation identifies novel chemical series modulating lysosome function” (Autophagy, 2022).
Like-named read-outs stand apart in the source and are kept apart here.

Experiments:
Assay type in all cases: binding
[1] = target: kinases (KINOMEscan panel) (Homo sapiens, UniProt O00750); conditions: PIK3C2B; NEW KINOMEscan
[2] = target: kinases (KINOMEscan panel) (Homo sapiens, UniProt P00533, T790M); conditions: kinase EGFR(T790M); NEW KINOMEscan
Sequence of kinases (KINOMEscan panel) (Homo sapiens, UniProt P00533, T790M) (P00533 25-1210 T790M): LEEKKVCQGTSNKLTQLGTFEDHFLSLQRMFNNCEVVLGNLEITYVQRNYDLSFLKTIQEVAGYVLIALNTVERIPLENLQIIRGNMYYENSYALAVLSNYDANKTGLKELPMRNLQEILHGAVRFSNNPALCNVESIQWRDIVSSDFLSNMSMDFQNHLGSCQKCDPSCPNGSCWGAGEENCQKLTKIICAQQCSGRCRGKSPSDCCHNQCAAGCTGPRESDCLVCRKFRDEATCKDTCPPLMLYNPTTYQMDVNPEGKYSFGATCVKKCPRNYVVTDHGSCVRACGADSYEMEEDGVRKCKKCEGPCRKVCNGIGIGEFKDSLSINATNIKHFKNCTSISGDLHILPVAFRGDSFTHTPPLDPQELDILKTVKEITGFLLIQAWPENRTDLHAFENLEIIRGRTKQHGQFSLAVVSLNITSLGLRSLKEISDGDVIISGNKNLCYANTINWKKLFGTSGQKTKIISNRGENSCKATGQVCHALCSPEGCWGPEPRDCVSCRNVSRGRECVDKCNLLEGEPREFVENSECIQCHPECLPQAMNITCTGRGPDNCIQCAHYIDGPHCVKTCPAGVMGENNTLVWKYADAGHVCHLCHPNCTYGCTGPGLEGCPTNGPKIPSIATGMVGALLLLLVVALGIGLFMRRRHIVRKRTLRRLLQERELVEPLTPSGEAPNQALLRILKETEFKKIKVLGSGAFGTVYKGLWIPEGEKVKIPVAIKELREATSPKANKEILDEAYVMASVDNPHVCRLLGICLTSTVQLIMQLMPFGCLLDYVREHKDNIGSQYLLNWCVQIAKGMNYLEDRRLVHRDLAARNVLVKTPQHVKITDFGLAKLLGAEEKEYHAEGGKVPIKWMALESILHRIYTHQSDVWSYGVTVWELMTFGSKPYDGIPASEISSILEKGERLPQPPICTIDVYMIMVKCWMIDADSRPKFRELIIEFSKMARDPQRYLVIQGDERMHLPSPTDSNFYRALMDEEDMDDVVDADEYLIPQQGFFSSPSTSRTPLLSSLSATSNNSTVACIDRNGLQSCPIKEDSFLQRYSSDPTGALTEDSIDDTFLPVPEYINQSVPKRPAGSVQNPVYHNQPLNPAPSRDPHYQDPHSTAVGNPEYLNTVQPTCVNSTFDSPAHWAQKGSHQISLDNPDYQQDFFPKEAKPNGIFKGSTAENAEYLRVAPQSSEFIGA

[3] = target: T1, kinases (KINOMEscan panel) (Homo sapiens, UniProt P20794); conditions: NEW KINOMEscan
T1 sequence (P20794 1-623): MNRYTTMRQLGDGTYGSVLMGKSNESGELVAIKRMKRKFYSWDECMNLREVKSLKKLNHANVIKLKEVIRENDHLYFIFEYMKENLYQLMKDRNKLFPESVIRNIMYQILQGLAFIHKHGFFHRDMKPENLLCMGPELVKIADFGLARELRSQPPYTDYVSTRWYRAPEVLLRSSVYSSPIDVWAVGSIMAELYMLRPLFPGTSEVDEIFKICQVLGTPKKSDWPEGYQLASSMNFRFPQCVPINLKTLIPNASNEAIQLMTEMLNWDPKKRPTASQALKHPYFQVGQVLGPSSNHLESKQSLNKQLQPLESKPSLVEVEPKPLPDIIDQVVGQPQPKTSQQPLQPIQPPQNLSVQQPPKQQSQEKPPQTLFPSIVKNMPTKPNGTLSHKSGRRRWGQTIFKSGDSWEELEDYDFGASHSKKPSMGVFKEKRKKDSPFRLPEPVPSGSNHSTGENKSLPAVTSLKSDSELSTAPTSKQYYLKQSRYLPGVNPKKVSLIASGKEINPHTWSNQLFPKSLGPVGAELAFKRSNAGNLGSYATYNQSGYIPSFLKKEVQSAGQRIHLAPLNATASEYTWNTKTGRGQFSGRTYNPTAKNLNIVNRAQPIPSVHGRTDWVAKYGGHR

[4] = target: kinases (KINOMEscan panel) (Homo sapiens, UniProt P51957); conditions: kinase NEK4; NEW KINOMEscan
Sequence of kinases (KINOMEscan panel) (Homo sapiens, UniProt P51957) (P51957 whole entry): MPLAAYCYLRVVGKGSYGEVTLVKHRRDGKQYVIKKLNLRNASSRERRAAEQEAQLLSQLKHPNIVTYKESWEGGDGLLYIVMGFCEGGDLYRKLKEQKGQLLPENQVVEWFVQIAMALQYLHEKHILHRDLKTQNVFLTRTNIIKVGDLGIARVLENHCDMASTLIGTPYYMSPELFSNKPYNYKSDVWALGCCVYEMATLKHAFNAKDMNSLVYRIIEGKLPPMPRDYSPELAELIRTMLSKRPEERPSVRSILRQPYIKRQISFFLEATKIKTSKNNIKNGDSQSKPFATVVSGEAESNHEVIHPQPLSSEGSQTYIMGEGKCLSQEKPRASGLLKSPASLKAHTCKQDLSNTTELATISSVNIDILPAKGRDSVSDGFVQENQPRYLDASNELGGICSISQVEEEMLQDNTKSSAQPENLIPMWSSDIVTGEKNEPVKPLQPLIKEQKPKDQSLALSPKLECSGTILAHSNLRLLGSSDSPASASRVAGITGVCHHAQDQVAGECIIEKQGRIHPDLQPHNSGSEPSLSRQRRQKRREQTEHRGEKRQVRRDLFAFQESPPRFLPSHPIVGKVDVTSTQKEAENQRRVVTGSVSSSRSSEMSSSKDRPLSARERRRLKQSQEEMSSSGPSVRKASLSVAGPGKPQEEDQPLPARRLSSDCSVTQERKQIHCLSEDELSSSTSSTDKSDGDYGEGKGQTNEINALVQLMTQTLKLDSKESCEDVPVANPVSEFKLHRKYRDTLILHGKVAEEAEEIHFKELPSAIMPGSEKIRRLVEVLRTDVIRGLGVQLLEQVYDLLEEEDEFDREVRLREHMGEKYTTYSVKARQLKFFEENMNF

[5] = target: kinases (KINOMEscan panel) (Homo sapiens, UniProt P53671); conditions: LIMK2; NEW KINOMEscan
Sequence of kinases (KINOMEscan panel) (Homo sapiens, UniProt P53671) (P53671 whole entry): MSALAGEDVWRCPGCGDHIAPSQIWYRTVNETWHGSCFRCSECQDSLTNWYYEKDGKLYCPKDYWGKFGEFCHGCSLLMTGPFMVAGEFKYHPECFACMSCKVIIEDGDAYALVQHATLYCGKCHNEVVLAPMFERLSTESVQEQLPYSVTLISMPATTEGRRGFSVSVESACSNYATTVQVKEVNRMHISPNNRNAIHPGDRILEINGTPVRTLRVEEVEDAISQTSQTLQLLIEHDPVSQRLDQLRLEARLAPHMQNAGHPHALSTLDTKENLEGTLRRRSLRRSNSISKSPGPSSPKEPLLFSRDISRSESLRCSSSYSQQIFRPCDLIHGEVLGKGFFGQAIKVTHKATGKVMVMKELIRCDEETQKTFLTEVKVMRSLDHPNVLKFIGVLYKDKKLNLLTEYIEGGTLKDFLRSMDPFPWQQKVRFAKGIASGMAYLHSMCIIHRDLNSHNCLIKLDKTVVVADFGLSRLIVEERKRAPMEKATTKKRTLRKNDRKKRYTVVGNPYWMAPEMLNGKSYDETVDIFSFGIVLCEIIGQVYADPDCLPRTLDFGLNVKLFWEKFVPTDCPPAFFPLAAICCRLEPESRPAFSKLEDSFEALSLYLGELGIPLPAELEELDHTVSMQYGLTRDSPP

[6] = target: kinases (KINOMEscan panel) (Homo sapiens, UniProt Q13554); conditions: kinase CAMK2B; NEW KINOMEscan
Sequence of kinases (KINOMEscan panel) (Homo sapiens, UniProt Q13554) (Q13554 whole entry): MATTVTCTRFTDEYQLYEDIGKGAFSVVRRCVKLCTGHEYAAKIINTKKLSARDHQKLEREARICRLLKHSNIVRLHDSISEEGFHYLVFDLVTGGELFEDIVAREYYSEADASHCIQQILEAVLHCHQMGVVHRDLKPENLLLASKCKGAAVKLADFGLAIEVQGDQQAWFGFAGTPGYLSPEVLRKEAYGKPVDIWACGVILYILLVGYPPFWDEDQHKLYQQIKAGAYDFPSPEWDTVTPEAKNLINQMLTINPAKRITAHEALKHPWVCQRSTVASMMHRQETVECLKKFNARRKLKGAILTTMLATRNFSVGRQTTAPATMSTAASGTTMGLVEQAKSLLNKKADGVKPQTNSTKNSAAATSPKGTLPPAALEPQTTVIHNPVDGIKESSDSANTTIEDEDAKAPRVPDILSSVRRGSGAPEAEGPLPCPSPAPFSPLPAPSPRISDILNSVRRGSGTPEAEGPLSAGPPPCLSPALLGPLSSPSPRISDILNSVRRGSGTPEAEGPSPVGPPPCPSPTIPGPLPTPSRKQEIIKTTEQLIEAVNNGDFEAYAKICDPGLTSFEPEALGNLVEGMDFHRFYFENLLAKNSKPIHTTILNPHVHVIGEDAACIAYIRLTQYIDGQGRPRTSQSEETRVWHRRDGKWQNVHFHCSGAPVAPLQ

[7] = target: T2, kinases (KINOMEscan panel) (Homo sapiens, UniProt Q8IW41)
T2 sequence (Q8IW41 1-473): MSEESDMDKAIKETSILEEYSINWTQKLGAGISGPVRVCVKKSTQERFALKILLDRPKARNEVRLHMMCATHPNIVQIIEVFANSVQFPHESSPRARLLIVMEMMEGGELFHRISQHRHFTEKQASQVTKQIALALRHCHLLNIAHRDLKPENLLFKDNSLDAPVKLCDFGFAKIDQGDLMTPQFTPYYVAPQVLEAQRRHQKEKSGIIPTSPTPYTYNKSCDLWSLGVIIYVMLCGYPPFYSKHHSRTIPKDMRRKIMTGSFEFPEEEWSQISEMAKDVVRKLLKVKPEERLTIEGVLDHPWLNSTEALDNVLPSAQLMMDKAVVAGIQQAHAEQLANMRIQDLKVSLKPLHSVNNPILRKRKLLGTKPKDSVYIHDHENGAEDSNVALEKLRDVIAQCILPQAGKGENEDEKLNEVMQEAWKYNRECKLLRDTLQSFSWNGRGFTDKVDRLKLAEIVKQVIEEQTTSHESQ

[8] = target: T3, kinases (KINOMEscan panel) (Homo sapiens, UniProt Q8N752); conditions: CSNK1A1L; NEW KINOMEscan
T3 sequence (Q8N752 1-337): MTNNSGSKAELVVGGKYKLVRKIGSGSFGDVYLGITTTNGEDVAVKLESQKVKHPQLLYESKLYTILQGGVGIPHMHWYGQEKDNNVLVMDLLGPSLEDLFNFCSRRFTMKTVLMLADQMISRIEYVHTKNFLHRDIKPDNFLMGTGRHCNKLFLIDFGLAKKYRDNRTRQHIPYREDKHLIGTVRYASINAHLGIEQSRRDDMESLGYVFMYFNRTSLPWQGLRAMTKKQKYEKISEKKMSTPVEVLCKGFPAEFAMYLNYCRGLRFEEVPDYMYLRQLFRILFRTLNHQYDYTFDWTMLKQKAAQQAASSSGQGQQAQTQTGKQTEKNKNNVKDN

[9] = target: T4, kinases (KINOMEscan panel) (Homo sapiens, UniProt Q9H2K8); conditions: kinase TAOK3; NEW KINOMEscan
T4 sequence (Q9H2K8 1-898): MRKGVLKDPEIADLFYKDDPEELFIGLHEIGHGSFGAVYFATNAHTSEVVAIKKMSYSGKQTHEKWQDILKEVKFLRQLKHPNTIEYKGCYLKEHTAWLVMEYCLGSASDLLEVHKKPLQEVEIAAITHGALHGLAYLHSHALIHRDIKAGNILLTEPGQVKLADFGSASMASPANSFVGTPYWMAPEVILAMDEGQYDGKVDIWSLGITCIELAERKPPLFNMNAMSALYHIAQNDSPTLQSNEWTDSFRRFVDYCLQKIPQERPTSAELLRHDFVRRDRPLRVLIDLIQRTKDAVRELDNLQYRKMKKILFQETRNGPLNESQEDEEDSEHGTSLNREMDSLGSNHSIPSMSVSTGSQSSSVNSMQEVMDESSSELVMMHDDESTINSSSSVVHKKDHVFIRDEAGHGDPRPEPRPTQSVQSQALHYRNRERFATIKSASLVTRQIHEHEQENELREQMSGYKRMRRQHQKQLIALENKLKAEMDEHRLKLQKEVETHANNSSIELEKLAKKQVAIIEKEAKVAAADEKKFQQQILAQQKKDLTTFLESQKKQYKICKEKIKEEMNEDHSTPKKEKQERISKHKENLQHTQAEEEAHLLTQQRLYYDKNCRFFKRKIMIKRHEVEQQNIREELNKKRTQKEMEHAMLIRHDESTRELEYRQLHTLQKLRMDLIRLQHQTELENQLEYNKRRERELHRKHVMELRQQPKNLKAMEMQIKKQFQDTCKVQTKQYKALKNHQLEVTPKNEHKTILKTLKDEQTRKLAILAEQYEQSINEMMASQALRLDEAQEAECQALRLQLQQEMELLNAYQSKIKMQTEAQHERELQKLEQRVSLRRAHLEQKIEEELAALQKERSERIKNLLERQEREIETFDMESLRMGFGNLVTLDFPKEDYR

Sequence of kinases (KINOMEscan panel) (Homo sapiens, UniProt O00750) (O00750 whole entry): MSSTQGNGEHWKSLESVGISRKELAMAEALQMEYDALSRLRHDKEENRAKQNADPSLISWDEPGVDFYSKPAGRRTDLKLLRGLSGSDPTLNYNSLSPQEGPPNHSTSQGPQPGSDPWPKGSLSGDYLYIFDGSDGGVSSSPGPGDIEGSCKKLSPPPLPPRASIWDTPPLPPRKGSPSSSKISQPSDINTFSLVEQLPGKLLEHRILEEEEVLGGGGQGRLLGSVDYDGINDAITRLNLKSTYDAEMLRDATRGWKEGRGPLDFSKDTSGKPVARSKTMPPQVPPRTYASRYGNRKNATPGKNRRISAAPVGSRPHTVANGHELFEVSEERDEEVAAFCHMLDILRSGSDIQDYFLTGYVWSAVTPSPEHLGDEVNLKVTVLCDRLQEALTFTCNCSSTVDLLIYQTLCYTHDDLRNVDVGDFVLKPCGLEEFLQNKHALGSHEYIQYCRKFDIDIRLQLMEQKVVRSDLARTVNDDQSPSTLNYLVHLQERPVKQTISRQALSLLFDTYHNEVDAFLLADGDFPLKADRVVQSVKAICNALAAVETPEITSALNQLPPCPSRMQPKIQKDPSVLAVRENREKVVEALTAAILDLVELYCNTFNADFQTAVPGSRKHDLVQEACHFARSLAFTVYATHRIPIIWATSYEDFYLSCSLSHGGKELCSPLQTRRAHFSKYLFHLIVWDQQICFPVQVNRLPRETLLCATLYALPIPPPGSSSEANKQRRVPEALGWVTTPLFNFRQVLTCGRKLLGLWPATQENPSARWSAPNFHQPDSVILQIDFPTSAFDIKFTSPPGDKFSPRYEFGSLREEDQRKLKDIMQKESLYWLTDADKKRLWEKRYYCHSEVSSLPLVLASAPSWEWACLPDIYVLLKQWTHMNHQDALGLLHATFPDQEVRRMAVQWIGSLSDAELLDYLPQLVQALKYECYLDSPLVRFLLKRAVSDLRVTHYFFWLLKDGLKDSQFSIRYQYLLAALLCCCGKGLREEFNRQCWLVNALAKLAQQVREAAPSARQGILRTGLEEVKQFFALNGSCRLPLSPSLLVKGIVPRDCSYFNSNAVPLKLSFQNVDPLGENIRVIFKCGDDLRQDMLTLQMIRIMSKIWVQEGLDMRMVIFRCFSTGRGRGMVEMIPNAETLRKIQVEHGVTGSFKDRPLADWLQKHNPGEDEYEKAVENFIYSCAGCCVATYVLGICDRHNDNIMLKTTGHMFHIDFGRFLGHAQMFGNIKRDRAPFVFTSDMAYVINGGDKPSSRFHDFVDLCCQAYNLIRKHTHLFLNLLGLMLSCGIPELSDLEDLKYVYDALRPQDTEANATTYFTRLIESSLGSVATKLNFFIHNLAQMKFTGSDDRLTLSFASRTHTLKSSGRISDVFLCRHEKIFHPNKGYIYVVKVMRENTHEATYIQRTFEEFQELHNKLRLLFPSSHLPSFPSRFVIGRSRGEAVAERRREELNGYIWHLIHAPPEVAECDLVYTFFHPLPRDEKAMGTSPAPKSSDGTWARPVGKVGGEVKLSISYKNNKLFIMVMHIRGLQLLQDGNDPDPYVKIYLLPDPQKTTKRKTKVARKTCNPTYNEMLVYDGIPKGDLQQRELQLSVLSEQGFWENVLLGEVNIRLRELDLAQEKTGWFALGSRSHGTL

Row | Compound | KINOMEscan PIK3C2B [1] | KINOMEscan EGFR(T790M) [2] | KINOMEscan MAK or ALPK3 [3] | KINOMEscan NEK4 [4] | KINOMEscan LIMK2 [5] | KINOMEscan CAMK2B [6] | KINOMEscan MAPKAPK5 ([7]; MAPKAPK5, NEW KINOMEscan) | KINOMEscan CSNK1A1L [8] | KINOMEscan TAOK3 [9] | KINOMEscan MAPKAPK5 [7]
1 | Cc1cccc(-c2nc(Nc3ccc4nn(C)cc4c3)c3ccccc3n2)n1 [NK167] | 0 | 0 | 0 | 0 | 3 | 0 | 0 | 0 | 4 | 
2 | Cc1cccc(-c2nc(N(C)c3ccc4ncsc4c3)c3ccccc3n2)n1 [NK-161] | 0 | 0 | 5 | 5 | 9 | 0 |  | 12 | 13 | 0
